Assay results reported in article PMC8707586, “New Inhibitors of Laccase and Tyrosinase by Examination of Cross-Inhibition between Copper-Containing Enzymes” (International Journal of Molecular Sciences, 2021).

Key:
[1] = biological target: T1, ceruloplasmin (Homo sapiens, UniProt P00450); assay: Ceruloplasmin activity assay (DMPD substrate); type: biochemical; conditions: Ki from IC50 by Cheng–Prusoff
T1 construct: purchased
T1 sequence (P00450 20-1065): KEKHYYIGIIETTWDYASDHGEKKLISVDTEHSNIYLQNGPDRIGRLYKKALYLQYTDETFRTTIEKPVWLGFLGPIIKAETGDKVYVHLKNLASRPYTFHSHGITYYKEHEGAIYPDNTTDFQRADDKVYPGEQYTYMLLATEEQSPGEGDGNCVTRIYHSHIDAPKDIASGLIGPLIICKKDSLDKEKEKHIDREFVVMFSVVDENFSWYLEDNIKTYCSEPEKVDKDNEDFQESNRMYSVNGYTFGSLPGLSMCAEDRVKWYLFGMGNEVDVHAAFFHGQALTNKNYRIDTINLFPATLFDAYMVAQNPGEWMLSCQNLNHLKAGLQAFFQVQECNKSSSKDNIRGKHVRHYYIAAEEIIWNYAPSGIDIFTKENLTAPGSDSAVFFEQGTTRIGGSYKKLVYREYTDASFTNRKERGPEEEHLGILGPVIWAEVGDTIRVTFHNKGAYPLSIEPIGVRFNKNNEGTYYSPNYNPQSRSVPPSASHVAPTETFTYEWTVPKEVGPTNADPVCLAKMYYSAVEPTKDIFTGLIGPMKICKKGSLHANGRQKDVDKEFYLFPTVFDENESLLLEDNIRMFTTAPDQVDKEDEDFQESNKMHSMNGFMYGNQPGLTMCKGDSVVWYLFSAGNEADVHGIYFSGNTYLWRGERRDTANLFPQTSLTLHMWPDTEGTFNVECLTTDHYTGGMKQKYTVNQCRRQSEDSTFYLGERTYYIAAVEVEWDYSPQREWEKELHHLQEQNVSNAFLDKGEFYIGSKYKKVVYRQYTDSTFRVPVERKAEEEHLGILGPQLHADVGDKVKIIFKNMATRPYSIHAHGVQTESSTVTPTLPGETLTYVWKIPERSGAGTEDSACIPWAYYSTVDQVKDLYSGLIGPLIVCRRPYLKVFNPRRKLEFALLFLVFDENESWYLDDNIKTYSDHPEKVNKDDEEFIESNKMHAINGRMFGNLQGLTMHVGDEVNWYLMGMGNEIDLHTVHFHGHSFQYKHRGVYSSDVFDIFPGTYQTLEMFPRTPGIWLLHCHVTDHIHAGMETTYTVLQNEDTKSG
Description: (§1) Enzyme activity with inhibitors—All chemical reagents were purchased from either Tokyo Chemical Industry (Tokyo, Japan), ChemBridge (San Diego, CA, USA), or Sigma-Aldrich (St. Louis, MO, USA). The reaction mixture for the tyrosinase assay comprised 20 nM tyrosinase and 500 µM L-DOPA in phosphate-buffered saline. The solution for the ceruloplasmin activity assay comprised 20 nM ceruloplasmin and 500 µM N,N-dimethyl-p-phenylenediamine (DMPD) in 100 mM of sodium acetate buffer at a pH of 5.5. The DBH activity assay was conducted in a reaction mixture containing 10 nM DBH, 500 µM DMPD, and 500 µM tyramine. The solution for the laccase activity assay comprised either 150 nM T. versicolor laccase or 350 nM A. oryzae laccase and 500 µM L-DOPA in 100 mM sodium phosphate buffer with a pH of 5.5. All the solutions included 0.01% Triton X-100 and 5% DMSO in the absence or presence of the inhibitor. After the addition of inhibitors, the solutions were incubated for 15 min at 30 °C. The absorbances of tyrosinase, laccase, ceruloplasmin, and DBH were measured at 475, 475, 550, and 515 nm, respectively, after the addition of substrate to the mixture solution, in a time-dependent manner. […] The Cheng–Prusoff equation with Km was employed to convert the IC50 value into the inhibitory constant, Ki, for each inhibitor [46].

[2] = biological target: T2, dopamine-β-hydroxylase (DBH) (Homo sapiens, UniProt P09172); assay: DBH activity assay (DMPD, tyramine); type: biochemical; conditions: for Ki: Ki from IC50 by Cheng–Prusoff
T2 construct: purchased
T2 sequence (P09172 1-617): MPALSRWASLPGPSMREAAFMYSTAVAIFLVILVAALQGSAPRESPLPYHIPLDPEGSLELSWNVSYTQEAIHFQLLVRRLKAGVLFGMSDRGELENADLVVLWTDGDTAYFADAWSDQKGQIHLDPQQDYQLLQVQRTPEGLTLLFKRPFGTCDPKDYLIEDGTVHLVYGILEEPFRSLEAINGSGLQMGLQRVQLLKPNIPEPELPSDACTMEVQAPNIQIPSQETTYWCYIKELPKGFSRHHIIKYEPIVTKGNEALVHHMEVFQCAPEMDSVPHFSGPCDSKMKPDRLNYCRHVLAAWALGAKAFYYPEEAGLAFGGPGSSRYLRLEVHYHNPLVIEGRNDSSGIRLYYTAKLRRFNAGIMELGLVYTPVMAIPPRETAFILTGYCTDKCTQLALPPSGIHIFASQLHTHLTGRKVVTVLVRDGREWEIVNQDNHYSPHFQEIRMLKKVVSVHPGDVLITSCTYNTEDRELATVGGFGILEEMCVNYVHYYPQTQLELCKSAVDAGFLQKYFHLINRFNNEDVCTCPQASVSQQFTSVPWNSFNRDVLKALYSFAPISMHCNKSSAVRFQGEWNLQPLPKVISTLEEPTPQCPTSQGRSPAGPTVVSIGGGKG
Description: as §1

[3] = biological target: T3, T. versicolor laccase (Trametes versicolor, UniProt Q12718); assay: Laccase activity assay (L-DOPA substrate), T. versicolor; type: biochemical; conditions: Ki from IC50 by Cheng–Prusoff, 0.01% Triton X-100
T3 sequence (Q12718 21-519): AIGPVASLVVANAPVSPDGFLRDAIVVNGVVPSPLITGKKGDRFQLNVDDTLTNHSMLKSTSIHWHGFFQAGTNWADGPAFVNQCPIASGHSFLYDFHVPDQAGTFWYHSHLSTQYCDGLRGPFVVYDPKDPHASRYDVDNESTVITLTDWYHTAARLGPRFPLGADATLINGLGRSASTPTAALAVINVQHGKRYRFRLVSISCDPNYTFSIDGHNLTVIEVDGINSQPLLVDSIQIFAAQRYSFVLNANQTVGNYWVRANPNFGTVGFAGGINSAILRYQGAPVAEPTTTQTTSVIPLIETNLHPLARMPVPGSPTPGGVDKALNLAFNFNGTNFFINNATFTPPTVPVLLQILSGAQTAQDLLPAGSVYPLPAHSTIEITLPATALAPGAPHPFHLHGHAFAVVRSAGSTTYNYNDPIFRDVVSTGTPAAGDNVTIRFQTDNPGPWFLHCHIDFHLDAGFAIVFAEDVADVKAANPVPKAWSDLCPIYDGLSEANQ
Description: as §1

[4] = biological target: A. oryzae laccase; assay: Laccase activity assay (L-DOPA substrate), A. oryzae; type: biochemical, Aspergillus oryzae; conditions: Ki from IC50 by Cheng–Prusoff, 0.01% Triton X-100
Description: as §1

[5] = biological target: A. oryzae laccase; assay: Enzyme inhibitory kinetics, A. oryzae laccase; type: biochemical, Aspergillus oryzae; conditions: read-out: ** Ki, simulated inhibitory constant by nonlinear fitting assuming competitive inhibition
Description: (§2) Enzyme inhibitory kinetics—The velocities during the generation of the product for each enzyme were measured by varying the substrate and inhibitor concentrations. Simultaneous and nonlinear fitting of all profiles in an inhibitor minimized the Χ^2 value of the differences of theoretical and experimental values in the Michaelis–Menten equation, expressed with the competitive, uncompetitive, noncompetitive, and mixed models. […] The reduced Χ^2 values between the models were compared based on F-statistic to select the most appropriate model. All fittings and statistical analyses were conducted using MATLAB from MathWorks (Natick, MA, USA).

[6] = system: laccases; assay: Laccase activity assay, statements on both laccases together; type: biochemical, T. versicolor and A. oryzae; conditions: 50 μM
Description: as §1

[7] = system: laccases; assay: Enzyme inhibitory kinetics, laccases from both sources together; type: biochemical, T. versicolor and A. oryzae; conditions: nonlinear fitting of enzyme kinetics
Description: as §2

[8] = biological target: T4, mushroom tyrosinase (Agaricus bisporus, UniProt C7FF04); assay: Tyrosinase enzyme activity assay (L-DOPA substrate); type: biochemical
Description: as §1

[9] = biological target: T4, mushroom tyrosinase; parameters: method as in PMID 24074025; conditions: cited from earlier work

T4 sequence (C7FF04 1-392): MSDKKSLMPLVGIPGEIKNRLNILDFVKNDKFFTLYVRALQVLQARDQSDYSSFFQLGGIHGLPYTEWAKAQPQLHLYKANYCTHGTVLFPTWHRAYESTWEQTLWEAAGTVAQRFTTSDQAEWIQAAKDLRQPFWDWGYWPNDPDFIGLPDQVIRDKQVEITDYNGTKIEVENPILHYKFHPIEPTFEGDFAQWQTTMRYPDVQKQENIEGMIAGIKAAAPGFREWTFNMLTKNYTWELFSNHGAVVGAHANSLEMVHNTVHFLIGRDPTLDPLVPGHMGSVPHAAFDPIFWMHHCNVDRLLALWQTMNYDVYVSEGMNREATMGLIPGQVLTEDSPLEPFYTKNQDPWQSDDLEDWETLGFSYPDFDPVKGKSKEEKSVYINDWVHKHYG

Structure (SMILES)	inhibition of DBH activity [2]	Ki [2] [µM]	Ki [4] [µM]	Ki [5] [µM]	inhibitory activities against laccases [6]	Mechanism of inhibition [7]	also measured
[N-]=[N+]=[N-].[Na+] [compound 27, sodium azide]	moderate inhibition	70.6 ± 11.6	3.1 ± 1.7	–	–	–	Ki [1]: 1.6 ± 0.3 µM; Ki [3]: 4.2 ± 1.3 µM; Ki ([3]; listed as sodium azide): 4 µM; Ki ([4]; listed as sodium azide): 3 µM
S=c1[nH]cnc2nc[nH]c12 [compound 1, mercaptopurine]	–	–	15.1 ± 4.6	17.2	substantial inhibitory activities	Competitive	Ki ([4]; listed as mercaptopurine): 15 µM; Mechanism of inhibition ([7]; listed as mercaptopurine): competitive mode
C[C@H](CS)C(=O)N1CCC[C@H]1C(=O)O [compound 11, captopril]	–	–	26.3 ± 2.4	32.4	substantial inhibitory activities	Competitive	inhibition of tyrosinase activity [8]: inhibits tyrosinase activity; Ki ([4]; listed as captopril): 26 µM; Mechanism of inhibition ([7]; listed as captopril): competitive mode; inhibition of tyrosinase (words, literature) [9]: slightly inhibited
O=c1cccccc1O [compound 26, tropolone]	significantly decreased DBH activity	9.3 ± 5.5	> 1000	–	–	–	–
O=C(O)C(S)C(S)C(=O)O (stereo not drawn) [compound 19, dimercaptosuccinate]	–	–	37.3 ± 5.6	13.1	substantial inhibitory activities	Competitive	Ki ([4]; listed as dimercaptosuccinate): 37 µM; Mechanism of inhibition ([7]; listed as dimercaptosuccinate): competitive mode
[NH4+].[NH4+].[SH-].[SH-].[S]=[Mo]=[S] [compound 28, ammonium tetrathiomolybdate (ATMD)]	significantly decreased DBH activity	23.7 ± 2.7	10.5 ± 2.5	–	–	–	Ki [1]: 10.9 ± 1.4 µM; Ki [3]: 12.3 ± 1.3 µM; Ki ([3]; listed as AMTD): 12 µM; Ki ([4]; listed as AMTD): 10 µM
Nc1nc2nc[nH]c2c(=S)[nH]1 [compound 2, thioguanine]	–	–	21.2 ± 1.7	26.2	substantial inhibitory activities	Competitive	Ki ([4]; listed as thioguanine): 21 µM; Mechanism of inhibition ([7]; listed as thioguanine): competitive mode
OCC(S)CS (stereo not drawn) [compound 18, dimercaptopropanol]	moderate inhibition	57.9 ± 7.6	18.6 ± 3.3	18	substantial inhibitory activities	Competitive	Ki ([4]; listed as dimercaptopropanol): 18 µM; Mechanism of inhibition ([7]; listed as dimercaptopropanol): competitive mode
Cn1cc[nH]c1=S [compound 16, methimazole]	–	–	–	–	–	–	inhibition of DBH at single concentration ([2]; 50 µM): neither methimazole nor other thione-containing test molecules significantly inhibited DBH
O=c1cc(CO)occ1O [compound 12, kojic acid]	–	–	> 1000	–	–	–	–
NC(=S)Nc1ccccc1 [compound 24, phenylthiourea (PTU)]	–	–	> 1000	–	–	–	–
